Converted amounts (≈) assume the structure as drawn.
Key:
[1] = Unbound fraction in human plasma after 16 hrs by LC-MS/MS analysis
[2] = system: Pseudomonas aeruginosa; experiment: Antibacterial activity against Pseudomonas aeruginosa PAO1 by broth microdilution method; format: functional
[3] = system: Pseudomonas aeruginosa; experiment: Activity of Pseudomonas aeruginosa PBP3 assessed as acylation rate constant
[4] = Half life of the compound at pH 7.4 at 37 degC; format: ADME
[5] = Clearance in Han Wistar rat at 1 mg/kg, iv; format: ADME, organism-based; conditions: in vivo
[6] = Volume of distribution at steady state in Han Wistar rat at 1 mg/kg, iv; format: ADME, organism-based; conditions: in vivo, read-out: Vdss
[7] = Half life in Han Wistar rat at 1 mg/kg, iv; format: ADME, organism-based; conditions: in vivo
[8] = system: Pseudomonas aeruginosa; experiment: Antibacterial activity against Pseudomonas aeruginosa; format: functional

SMILES | fraction unbound at 16 h [1] | MIC [2] | K [3] | half-life [4] | clearance [5] | Vd [6] | half-life [7] | MIC90 [8]
C[C@@H](O)[C@H]1C(=O)N2C(C(=O)O)=C(S[C@@H]3CN[C@H](C(=O)N(C)C)C3)[C@H](C)[C@H]12 [MEROPENEM] | – | 1 µg/mL (≈ 2.61 µM) | 4.9 ×10⁴ /M/s | 95 h | – | – | – | –
C[C@H]1[C@H](NC(=O)/C(=N\OC(C)(C)C(=O)O)c2csc(N)n2)C(=O)N1C(=O)NS(=O)(=O)n1nc(-c2cc(=O)c(O)c[nH]2)n(CC2(CS(C)(=O)=O)CC2)c1=O | 0.09 | 0.5 µg/mL (≈ 0.624 µM) | 2.5 ×10⁵ /M/s | 71 h | – | – | – | –
CC[C@H]1[C@H](NC(=O)/C(=N\OC(C)(C)C(=O)O)c2csc(N)n2)C(=O)N1C(=O)NS(=O)(=O)n1nc(-c2cc(=O)c(O)c[nH]2)n(CCCS(C)(=O)=O)c1=O | – | 0.5 µg/mL (≈ 0.634 µM) | 3.6 ×10⁵ /M/s | 98 h | 12 mL/min/kg | 0.35 L/kg | 2 h | –
C[C@H]1[C@H](NC(=O)/C(=N\OC(C)(C)C(=O)O)c2csc(N)n2)C(=O)N1C(=O)NS(=O)(=O)n1nc(-c2cc(=O)c(O)c[nH]2)n(CCC2(S(C)(=O)=O)CC2)c1=O | 0.04 | 0.5 µg/mL (≈ 0.624 µM) | 4.5 ×10⁵ /M/s | 94 h | – | – | – | –
CC[C@@H]1[C@H](NC(=O)/C(=N\OC(C)(C)C(=O)O)c2csc(N)n2)C(=O)N1C(=O)NS(=O)(=O)n1nc(-c2cc(=O)c(O)c[nH]2)n(CCCS(C)(=O)=O)c1=O | – | 1 µg/mL (≈ 1.27 µM) | 8.8 ×10⁵ /M/s | 94 h | – | – | – | –
C[C@H]1[C@H](NC(=O)/C(=N\OC(C)(C)C(=O)O)c2csc(N)n2)C(=O)N1S(=O)(=O)O [AZTREONAM] | – | 4 µg/mL (≈ 9.19 µM) | – | – | – | – | – | ≥ 1020 µg/mL
Cn1c(-c2cc(=O)c(O)c[nH]2)nn(S(=O)(=O)NC(=O)N2C[C@H](NC(=O)/C(=N\OC(C)(C)C(=O)O)c3csc(N)n3)C2=O)c1=O | 0.05 | 0.78 µg/mL (≈ 1.19 µM) | 1.7 ×10⁵ /M/s | – | – | – | – | –
C[C@H]1[C@H](NC(=O)/C(=N\OC(C)(C)C(=O)O)c2csc(N)n2)C(=O)N1C(=O)NS(=O)(=O)n1nc(-c2cc(=O)c(O)c[nH]2)n(C[C@@H](O)CO)c1=O | 0.04 | 0.25 µg/mL (≈ 0.343 µM) | 7.2 ×10⁵ /M/s | 117 h | – | – | – | –
C[C@H]1[C@H](NC(=O)/C(=N\OC(C)(C)C(=O)O)c2csc(N)n2)C(=O)N1C(=O)NS(=O)(=O)n1nc(-c2cc(=O)c(O)c[nH]2)n(CCCS(=O)(=O)c2ccccc2)c1=O | 0.03 | 1 µg/mL (≈ 1.19 µM) | > 4 ×10⁵ /M/s | > 150 h | – | – | – | –
C[C@H]1[C@H](NC(=O)/C(=N\OC(C)(C)C(=O)O)c2csc(N)n2)C(=O)N1C(=O)NS(=O)(=O)n1nc(-c2cc(=O)c(O)cn2O)n(CCS(C)(=O)=O)c1=O | 0.2 | 1 µg/mL (≈ 1.29 µM) | 2.5 ×10⁵ /M/s | 102 h | – | – | – | –
C[C@H]1[C@H](NC(=O)/C(=N\OC(C)(C)C(=O)O)c2csc(N)n2)C(=O)N1C(=O)NS(=O)(=O)n1nc(-c2cc(=O)c(O)cn2O)n(CCCS(C)(=O)=O)c1=O | 0.12 | 4 µg/mL (≈ 5.06 µM) | 1.5 ×10⁵ /M/s | 82 h | – | – | – | –
C[C@H]1[C@H](NC(=O)/C(=N\OC(C)(C)C(=O)O)c2csc(N)n2)C(=O)N1C(=O)NS(=O)(=O)n1nc(-c2cc(=O)c(O)c[nH]2)n(CCCCS(C)(=O)=O)c1=O | 0.07 | 0.25 µg/mL (≈ 0.317 µM) | 6.2 ×10⁵ /M/s | 100 h | – | – | – | –
CC(C)(O/N=C(\C(=O)N[C@@H]1C(=O)N(C(=O)NS(=O)(=O)n2nc(-c3cc(=O)c(O)c[nH]3)n(CCCS(C)(=O)=O)c2=O)C1(C)C)c1csc(N)n1)C(=O)O | – | 8 µg/mL (≈ 10.1 µM) | 1.1 ×10⁵ /M/s | > 150 h | – | – | – | –
C[C@H]1[C@H](NC(=O)/C(=N\OC(C)(C)C(=O)O)c2csc(N)n2)C(=O)N1C(=O)NS(=O)(=O)n1nc(-c2cc(=O)c(O)c[nH]2)n(CCCS(C)(=O)=O)c1=O | 0.09 | 0.25 µg/mL (≈ 0.323 µM) | 1.7 ×10⁵ /M/s | 93 h | 7.3 mL/min/kg | 0.21 L/kg | 3 h | –
C=C[C@H]1[C@H](NC(=O)/C(=N\OC(C)(C)C(=O)O)c2csc(N)n2)C(=O)N1C(=O)NS(=O)(=O)n1nc(-c2cc(=O)c(O)c[nH]2)n(CCCS(C)(=O)=O)c1=O | – | 0.5 µg/mL (≈ 0.635 µM) | 2.1 ×10⁵ /M/s | 53 h | 11 mL/min/kg | 0.18 L/kg | 2 h | –
C=CC[C@@H]1[C@H](NC(=O)/C(=N\OC(C)(C)C(=O)O)c2csc(N)n2)C(=O)N1C(=O)NS(=O)(=O)n1nc(-c2cc(=O)c(O)c[nH]2)n(CCCS(C)(=O)=O)c1=O | – | 8 µg/mL (≈ 9.99 µM) | 5.9 ×10⁵ /M/s | 126 h | – | – | – | –

Now from value to compound, other results behind:

fraction unbound at 16 h [1] | MIC [2] | K [3] | half-life [4] | clearance [5] | Vd [6] | half-life [7] | SMILES | MIC90 [8]
0.06 | 1 µg/mL (≈ 1.24 µM) | 3.2 ×10⁵ /M/s | 118 h | – | – | – | C[C@H]1[C@H](NC(=O)/C(=N\OC(C)(C)C(=O)O)c2nc(N)sc2Cl)C(=O)N1C(=O)NS(=O)(=O)n1nc(-c2cc(=O)c(O)c[nH]2)n(CCCS(C)(=O)=O)c1=O | –
0.06 | 0.78 µg/mL (≈ 1.09 µM) | 8.1 ×10⁵ /M/s | – | – | – | – | CC(C)(O/N=C(\C(=O)N[C@H]1CN(C(=O)NS(=O)(=O)n2nc(-c3cc(=O)c(O)c[nH]3)n(C[C@@H](O)CO)c2=O)C1=O)c1csc(N)n1)C(=O)O | –
0.08 | 0.5 µg/mL (≈ 0.645 µM) | 4.1 ×10⁵ /M/s | 61 h | – | – | – | C[C@H]1[C@H](NC(=O)/C(=N\OC(C)(C)C(=O)O)c2csc(N)n2)C(=O)N1C(=O)NS(=O)(=O)n1nc(-c2cc(=O)c(O)c[nH]2)n(CCNS(C)(=O)=O)c1=O | –
– | < 0.6 µg/mL | > 4 ×10⁵ /M/s | 102 h | – | – | – | C[C@H]1[C@H](NC(=O)/C(=N\OC(C)(C)C(=O)O)c2csc(N)n2)C(=O)N1C(=O)NS(=O)(=O)n1nc(-c2cc(=O)c(O)c[nH]2)n(CCS(N)(=O)=O)c1=O | –
0.06 | 0.13 µg/mL (≈ 0.171 µM) | 3.2 ×10⁵ /M/s | 86 h | 8.9 mL/min/kg | 0.23 L/kg | 2.5 h | C[C@H]1[C@H](NC(=O)/C(=N\OC(C)(C)C(=O)O)c2csc(N)n2)C(=O)N1C(=O)NS(=O)(=O)n1nc(-c2cc(=O)c(O)c[nH]2)n(CCS(C)(=O)=O)c1=O | 1 µg/mL (≈ 1.31 µM)
0.04 | 1 µg/mL (≈ 1.26 µM) | 5.4 ×10⁵ /M/s | 87 h | – | – | – | C[C@H]1[C@H](NC(=O)/C(=N\OC(C)(C)C(=O)O)c2csc(N)n2)C(=O)N1C(=O)NS(=O)(=O)n1nc(-c2cc(=O)c(O)c[nH]2)n(C[C@@H](O)CS(C)(=O)=O)c1=O | –
0.27 | 0.25 µg/mL (≈ 0.322 µM) | 5 ×10⁵ /M/s | 85 h | 9.5 mL/min/kg | 0.26 L/kg | 2 h | C[C@H]1[C@H](NC(=O)/C(=N\OC(C)(C)C(=O)O)c2nsc(N)n2)C(=O)N1C(=O)NS(=O)(=O)n1nc(-c2cc(=O)c(O)c[nH]2)n(CCCS(C)(=O)=O)c1=O | –
– | 2 µg/mL (≈ 2.54 µM) | 1.9 ×10⁵ /M/s | 38 h | – | – | – | C=C[C@@H]1[C@H](NC(=O)/C(=N\OC(C)(C)C(=O)O)c2csc(N)n2)C(=O)N1C(=O)NS(=O)(=O)n1nc(-c2cc(=O)c(O)c[nH]2)n(CCCS(C)(=O)=O)c1=O | –
– | 1 µg/mL (≈ 1.29 µM) | 1.6 ×10⁵ /M/s | 76 h | – | – | – | C[C@@H]1[C@H](NC(=O)/C(=N\OC(C)(C)C(=O)O)c2csc(N)n2)C(=O)N1C(=O)NS(=O)(=O)n1nc(-c2cc(=O)c(O)c[nH]2)n(CCCS(C)(=O)=O)c1=O | –
– | 4 µg/mL (≈ 4.98 µM) | 7.4 ×10⁵ /M/s | > 150 h | – | – | – | CCC[C@@H]1[C@H](NC(=O)/C(=N\OC(C)(C)C(=O)O)c2csc(N)n2)C(=O)N1C(=O)NS(=O)(=O)n1nc(-c2cc(=O)c(O)c[nH]2)n(CCCS(C)(=O)=O)c1=O | –
0.08 | 0.5 µg/mL (≈ 0.633 µM) | 3 ×10⁵ /M/s | – | – | – | – | C[C@H]1[C@H](NC(=O)/C(=N\OC(C)(C)C(=O)O)c2csc(N)n2)C(=O)N1C(=O)NS(=O)(=O)n1nc(-c2cc(=O)c(O)c[nH]2)n(CCCNS(C)(=O)=O)c1=O | –
